The structures appear in SMILES notation.

Sequence of LRRK2 G2019S (Q5S007 whole entry G2019S): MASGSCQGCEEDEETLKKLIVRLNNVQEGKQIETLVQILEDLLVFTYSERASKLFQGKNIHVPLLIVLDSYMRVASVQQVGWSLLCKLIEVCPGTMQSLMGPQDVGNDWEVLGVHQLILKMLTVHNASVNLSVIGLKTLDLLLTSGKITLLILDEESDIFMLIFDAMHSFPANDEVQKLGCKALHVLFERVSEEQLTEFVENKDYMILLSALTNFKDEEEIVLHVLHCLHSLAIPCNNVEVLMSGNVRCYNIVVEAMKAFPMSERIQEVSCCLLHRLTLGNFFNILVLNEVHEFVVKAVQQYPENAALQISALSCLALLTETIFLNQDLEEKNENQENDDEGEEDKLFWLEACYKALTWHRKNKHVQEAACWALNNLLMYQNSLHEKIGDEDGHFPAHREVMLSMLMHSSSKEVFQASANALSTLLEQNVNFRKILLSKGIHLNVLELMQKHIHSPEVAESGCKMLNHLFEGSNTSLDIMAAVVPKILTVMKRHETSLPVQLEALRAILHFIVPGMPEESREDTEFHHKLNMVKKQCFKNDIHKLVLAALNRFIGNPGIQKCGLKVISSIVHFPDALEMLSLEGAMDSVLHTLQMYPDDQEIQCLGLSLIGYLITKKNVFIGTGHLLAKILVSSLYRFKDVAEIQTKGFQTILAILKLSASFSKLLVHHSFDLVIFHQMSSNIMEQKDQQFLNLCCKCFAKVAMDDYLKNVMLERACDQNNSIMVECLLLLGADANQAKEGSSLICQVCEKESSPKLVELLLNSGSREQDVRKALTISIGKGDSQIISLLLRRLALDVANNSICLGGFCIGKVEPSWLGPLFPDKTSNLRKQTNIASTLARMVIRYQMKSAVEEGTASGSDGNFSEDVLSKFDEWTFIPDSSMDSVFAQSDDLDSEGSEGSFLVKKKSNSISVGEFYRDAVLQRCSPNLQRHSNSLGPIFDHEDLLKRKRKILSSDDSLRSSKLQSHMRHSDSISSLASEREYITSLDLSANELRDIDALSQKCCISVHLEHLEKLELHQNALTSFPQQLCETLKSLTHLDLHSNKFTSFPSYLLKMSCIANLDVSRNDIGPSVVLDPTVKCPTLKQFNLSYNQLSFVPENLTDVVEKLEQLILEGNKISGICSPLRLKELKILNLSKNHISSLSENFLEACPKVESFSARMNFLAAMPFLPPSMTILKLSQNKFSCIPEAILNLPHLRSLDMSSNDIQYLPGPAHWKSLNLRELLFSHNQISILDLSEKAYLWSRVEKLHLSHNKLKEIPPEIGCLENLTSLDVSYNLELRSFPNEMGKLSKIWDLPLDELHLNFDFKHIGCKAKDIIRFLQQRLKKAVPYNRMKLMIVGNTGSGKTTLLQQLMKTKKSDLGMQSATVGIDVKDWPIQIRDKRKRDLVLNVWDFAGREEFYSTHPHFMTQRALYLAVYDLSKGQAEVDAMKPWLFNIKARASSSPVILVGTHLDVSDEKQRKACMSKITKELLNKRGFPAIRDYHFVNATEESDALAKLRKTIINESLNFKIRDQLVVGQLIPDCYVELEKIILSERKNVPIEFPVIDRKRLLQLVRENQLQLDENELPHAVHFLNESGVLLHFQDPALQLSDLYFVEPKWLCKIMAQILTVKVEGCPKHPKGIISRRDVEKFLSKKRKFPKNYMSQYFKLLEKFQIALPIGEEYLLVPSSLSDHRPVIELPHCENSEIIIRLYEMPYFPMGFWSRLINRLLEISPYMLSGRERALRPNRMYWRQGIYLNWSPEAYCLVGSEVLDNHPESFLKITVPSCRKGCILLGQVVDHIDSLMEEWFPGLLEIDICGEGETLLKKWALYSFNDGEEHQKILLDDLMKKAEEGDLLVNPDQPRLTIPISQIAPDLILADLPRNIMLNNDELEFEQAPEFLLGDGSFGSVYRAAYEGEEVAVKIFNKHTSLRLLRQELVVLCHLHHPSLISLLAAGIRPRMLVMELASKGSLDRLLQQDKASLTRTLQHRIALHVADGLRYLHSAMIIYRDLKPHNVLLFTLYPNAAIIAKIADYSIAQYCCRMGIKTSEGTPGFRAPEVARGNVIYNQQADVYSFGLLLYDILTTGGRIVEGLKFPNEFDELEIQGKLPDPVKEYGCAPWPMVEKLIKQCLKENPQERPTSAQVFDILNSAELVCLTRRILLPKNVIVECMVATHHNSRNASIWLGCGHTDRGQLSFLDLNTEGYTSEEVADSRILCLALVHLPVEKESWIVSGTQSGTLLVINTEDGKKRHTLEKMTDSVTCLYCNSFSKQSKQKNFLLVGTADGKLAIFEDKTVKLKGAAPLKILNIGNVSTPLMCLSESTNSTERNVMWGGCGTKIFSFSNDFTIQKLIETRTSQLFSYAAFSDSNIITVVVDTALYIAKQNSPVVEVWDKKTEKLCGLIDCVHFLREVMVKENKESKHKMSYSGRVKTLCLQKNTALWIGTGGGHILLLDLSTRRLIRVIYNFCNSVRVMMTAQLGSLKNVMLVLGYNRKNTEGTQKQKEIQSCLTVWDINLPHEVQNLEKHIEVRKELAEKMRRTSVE

The test concerns the target LRRK2 G2019S (Homo sapiens, UniProt Q5S007, G2019S). The test is described as follows: LRRK2 G2019S Km ATP LanthaScreen assay. The format is biochemical. The following applies: read-out: LRRK2 pIC50 (converted). (TR-FRET usually uses a lanthanide donor and a delayed reading to cut background.)
As for `CC1(N2CCC(c3cc4cc(NC(=O)C5CC5C(F)F)ncc4cc3Cl)CC2)COCC1O` (single isomer, unassigned) [Ex-10.10, N-(7-chloro-6-(1-(4-hydroxy-3-methyltetrahydrofuran-3-yl)piperidin-4-yl)isoquinolin-3-yl)-2-(difluoromethyl)cyclopropane-1-carboxamide], the IC50 was 15.5 nM.
Then `CCC1C(C(=O)Nc2cc3cc(C4CCC(N5CC(C)(F)C5)CC4)c(Cl)cc3cn2)C1c1cnn(C)c1` (single isomer, unassigned) [Ex-11.1, (1R,2R,3R) or (1R,2S,3R) or (1S,2R,3S) or (1S,2S,3S)-N-(7-chloro-6-((cis or trans)-4-(3-fluoro-3-methylazetidin-1-yl)cyclohexyl)isoquinolin-3-yl)-2-ethyl-3-(1-methyl-1H-pyrazol-4-yl)cyclopropane-1-carboxamide], with 0.0813 nM; and `CCC1C(C(=O)Nc2cc3cc(C4CCC(N5CC(C)(F)C5)CC4)c(Cl)cc3cn2)C1c1cnn(C)c1` (single isomer, unassigned) [Ex-11.2, (1R,2R,3R) or (1R,2S,3R) or (1S,2R,3S) or (1S,2S,3S)-N-(7-chloro-6-((cis or trans)-4-(3-fluoro-3-methylazetidin-1-yl)cyclohexyl)isoquinolin-3-yl)-2-ethyl-3-(1-methyl-1H-pyrazol-4-yl)cyclopropane-1-carboxamide], with 9.12 nM.
`COC1CN(C2CCC(c3cc4cc(NC(=O)C5CC56CCOCC6)ncc4cc3Cl)CC2)C1` (single isomer, unassigned) [Ex-11.3, N-(7-chloro-6-(4-(3-methoxyazetidin-1-yl)cyclohexyl)isoquinolin-3-yl)-6-oxaspiro[2.5]octane-1-carboxamide]: the IC50 is 0.0813 nM.
Take `COC1CN(C2CCC(c3cc4cc(NC(=O)C5CC56CCOCC6)ncc4cc3Cl)CC2)C1` (single isomer, unassigned) [Ex-11.4, N-(7-chloro-6-(4-(3-methoxyazetidin-1-yl)cyclohexyl)isoquinolin-3-yl)-6-oxaspiro[2.5]octane-1-carboxamide]: the IC50 was 1.7 nM.
`O=C(Nc1cc2cc(C3CCC(N4CC(F)C4)CC3)c(Cl)cc2cn1)C1CC12CCOCC2` (single isomer, unassigned) [Ex-11.5, N-(7-chloro-6-(4-(3-fluoroazetidin-1-yl)cyclohexyl)isoquinolin-3-yl)-6-oxaspiro[2.5]octane-1-carboxamide]: the IC50 is 186 nM.
Then `O=C(Nc1cc2cc(C3CCC(N4CC(F)C4)CC3)c(Cl)cc2cn1)C1CC12CCOCC2` (single isomer, unassigned) [Ex-11.6, N-(7-chloro-6-(4-(3-fluoroazetidin-1-yl)cyclohexyl)isoquinolin-3-yl)-6-oxaspiro[2.5]octane-1-carboxamide], with 3.8 nM; and `CCC1C(C(=O)Nc2cc3cc(C4CCC(N5CC(F)C5)CC4)c(Cl)cc3cn2)C1c1cnn(C)c1` (single isomer, unassigned) [Ex-11.7, N-(7-chloro-6-(4-(3-fluoroazetidin-1-yl)cyclohexyl)isoquinolin-3-yl)-2-ethyl-3-(1-methyl-1H-pyrazol-4-yl)cyclopropane-1-carboxamide], with 0.282 nM; and `CCC1C(C(=O)Nc2cc3cc(C4CCC(N5CC(F)C5)CC4)c(Cl)cc3cn2)C1c1cnn(C)c1` (single isomer, unassigned) [Ex-11.8, N-(7-chloro-6-(4-(3-fluoroazetidin-1-yl)cyclohexyl)isoquinolin-3-yl)-2-ethyl-3-(1-methyl-1H-pyrazol-4-yl)cyclopropane-1-carboxamide], with 0.0813 nM.
With `CC1(N2CCC(c3cc4cc(NC(=O)C5CC56CCOCC6)ncc4cc3Cl)CC2)CCOCC1F` (single isomer, unassigned) [Ex-12.1, N-(7-chloro-6-(1-((3R,4R or 3S,4S)-3-fluoro-4-methyltetrahydro-2H-pyran-4-yl)piperidin-4-yl)isoquinolin-3-yl)-6-oxaspiro[2.5]octane-1-carboxamide], the IC50 is 41.7 nM.
